Patent US11806343B2, “Inhibitors of DUX4 induction for regulation of muscle function” (Sonic Master Limited, priority 2017, dated 2023)
pIC50: −log10 of the molar value. Like-named read-outs stand apart in the source and are kept apart here.

How the values were obtained:
DUX4 = experiment: FSHD primary patient biopsy myotube immunocytochemistry, DUX4 expression; format: cell-based, human
Protocol: (§1) FIG. 10 provides the workflow for assays performed with patient biopsy-derived muscle. On Day 0, patient myoblasts are passaged in a 96-well dish in primary myoblast medium (Genea BioCells). On Day 2, the medium is changed to […].
(§2) 17MB026 primary FSHD-affected patient myoblasts (obtained from the University of Rochester FSHD Biorepository) were thawed and cultured as described in Rickard et al., 2015 in primary myoblast medium. Cells (6000 per well) were seeded to a collagen-I coated 96-well plate in 100 μl primary myoblast medium. Medium was changed every other day until cells reached 80% confluence followed by a switch to 100 μL per well primary myotube medium. […] Cells were fixed and analyzed after 2.5 days of myotube formation by immunocytochemistry and high-content imaging for DUX4, H3.X/Y, Myosin Heavy Chain expression and nuclei number. Five or six replicate wells were averaged per condition, […]

[1] = tested on: 17MB026 primary FSHD-affected patient myotubes; experiment: FSHD primary patient biopsy myotube immunocytochemistry, Myosin Heavy Chain and nuclei; format: cell-based, human; conditions: 17MB026 primary myotubes, 2 nM-5 μM, 2.5 days
Protocol: as §1, §2

[2] = Acute pharmacokinetic study, plasma; format: in vivo, CD-1 mice; conditions: mouse plasma; for AUClast: 0 to 24 hours
Protocol: Intraperitoneal injection, which provides the drug via absorption into the mesenteric blood supply and is thus subject to hepatic first-pass metabolism, was used to approximate oral dosings total of 96 mice were utilized: 3 naive CD-1 male mice and 3 naïve CD-1 female mice were dosed per route of administration per 2 doses plus 3 naive CD-1 male mice and 3 naïve CD-1 female mice were per route of administration per dose for tissue collection. Following administration, blood, brain, and muscle samples were collected as follows; Two blood samples were collected from each mouse at 2 distinct timepoints over 24 bout post-dose to include 0.25, 0.5, 1, 2, 4, 8, and 24 hours. Blood samples were centrifuged to obtain plasma samples. For each time point, duplicate aliquots of plasma were transferred into an appropriately labeled sample tube containing a volume of buffer. The diluted plasma samples were stored at −20° C. for the first 24 hours and then transferred to −80° C. 24 hours of processing. Terminal brain and muscle samples were collected at 1 hour and 24 hours after administration. Tissue samples were temporarily put on dry ice and then stored at −20° C. for the first 24 hours and then transferred to −80° C. 24 hours of collection Plasma, brain and muscle samples were analyzed for test substance quantification using a method based on protein precipitation followed by HPLC-MS/MS analysis within optimized bioanalytical method.

[3] = tested on: 4qA and D4Z4 regions of chromosome 4; experiment: Bisulfite sequencing of DNA methylation at 4qA and D4Z4 regions in FSHD-affected myotubes; format: cell-based, human; conditions: Genea049 FSHD-affected myotubes, 10 nM, 100 nM or 1 μM, myotube day 3
Protocol: Healthy (Genea015) or FSHD-affected (Genea049) MSC-derived myoblasts were cultured in Myoblast Media (Genea Biocells) while performing media changes every other day. When cells reached confluence, the medium was switched to Myottibe Medium (Genea Biocells) without any further media changes. On myotube day 3, cells were trypsinized and cell pellets were prepared for bisulfite sequencing analysis. Genomic DNA was isolated from cell pellets using QIAamp DNA Blood Mini Kit (Qiagen) and bisultite converted using the EpiTect Kit (Qiagen). The 4qA and D4Z4 regions were amplified and cloned into the pCR2.1 TOPO vector. The 4qA or D4Z4 containing plasmids were transformed into TOP10 chemically competent E. coli and selected for kanamycin resistance. Sequencing of kanamycin resistant colonies was completed by Sequegen and methylation analysis was performed using Bisulfite Sequencing DNA Methylation Analysis (BISMA) online software.
FSHD-affected. (Genea049) embryonic stem cell-derived myoblasts were cultured in Myoblast Media (Genea Biocells) while performing media changes every other day. When cells reached confluence, the medium was switched to Myotube Medium (Genea. Biocells) without any further media changes. […] On myotube day 3, myotubes were trypsinized and cell pellets were prepared for bisulfite sequencing analysis. Refer to the FIG. 1 legend for additional details.

PRKDC = experiment: RT-PCR of PRKDC mRNA in patient biopsy-derived primary myotubes; format: cell-based, human; conditions: 10 nM-1 μM, 2.5 days, vs vehicle
Protocol: (§3) Patient biopsy-derived primary myoblasts were seeded to a collagen-I coated plate in primary myoblast medium. Medium was changed every other day until cells reached 80% confluence followed by a switch to primary myotube medium. […] After 2.5 days of myotube formation, the cells were lysed with buffer RLT followed by RNA isolation with RNeasy Plus Mini Kit (Qiagen). 500 ng of RNA was used for cDNA synthesis with SuperScript III first-strand synthesis system for RT-PCR (Invitrogen) and both random hexamers and oligo(dT)20 primers. RT-PCR was performed using TaqMan™ Fast Advanced Master Mix (Applied Biosystems). Reactions were analyzed upon a QuantStudio 3 Real-Time PCR machine using the following cycle conditions: 50° C. for 2 minutes, 95° C. for 2 minutes, followed by 40 cycles at 95° C. for 15 seconds, 60° C. for 1 minute, Results were normalized against GAPDH expression.

SRC [4] = experiment: RT-PCR of SRC mRNA in patient biopsy-derived primary myotubes; format: cell-based, human; conditions: 10 nM-1 μM, 2.5 days, vs vehicle
Protocol: as §3

SRC [5] = experiment: Immunofluorescence of nuclear phosphorylated SRC^416 in primary myocytes; format: cell-based, human; conditions: 100 nM or 500 nM, 1 hour
Protocol: Patient biopsy-derived primary myoblasts were seeded to a collagen-I coated plate in primary myoblast medium. Medium was changed every other day until cells reached 80% confluence followed by a switch to primary myotube medium. […] PRKDC (phosphorylated PRKDC^2609), active SRC (phosphorylated SRC^416), and nuclei.

[6] = IM, 10 mg/kg single dose, N = 6
[7] = IM, 50 mg/kg single dose, N = 6
[8] = IP, 10 mg/kg single dose, N = 6
[9] = IP, 50 mg/kg single dose, N = 6

CNC(=O)c1cc(Oc2ccc(NC(=O)Nc3cc(C(C)(C)C)nn3-c3ccc4ncccc4c3)c(F)c2)ccn1 [GBC0905, Rebastinib]
DUX4 expression, dose curve (DUX4; 17MB026 primary myotubes, 10-point dose curve 2 nM-5 μM, 2.5 days): dose-dependent decrease of DUX4 expression
pIC50 (DUX4; Homo sapiens, Myotube, 17MB026 primary FSHD patient myotubes, read-out: IC50 value, DUX4-suppressive effect): ~7.00
Myosin Heavy Chain and nuclei count [1]: without reducing Myosin Heavy Chain or nuclei count
tmax ([2]; both sexes, CD-1, im, intramuscular injection, 10 or 50 mg/kg, read-out: median time to maximum concentration (Tmax)): 2 to 4 h
AUClast [2, 6]: 93.54 µg·h/mL
AUC∞ [2, 6]: 98.469 µg·h/mL
Cmax [2, 6]: 8203 ng/mL
MRT∞ [2, 6]: 7.83 h
t1/2 [2, 6]: 5.59 h
tmax [2, 6]: 2 h
AUClast [2, 7]: 222.518 µg·h/mL
AUC∞ [2, 7]: 256.486 µg·h/mL
Cmax [2, 7]: 15103 ng/mL
MRT∞ [2, 7]: 11.8 h
t1/2 [2, 7]: 8.10 h
tmax [2, 7]: 4 h
AUClast [2, 8]: 162.488 µg·h/mL
AUC∞ [2, 8]: 162.568 µg·h/mL
Cmax [2, 8]: 23683 ng/mL
MRT∞ [2, 8]: 4.46 h
t1/2 [2, 8]: 2.12 h
tmax [2, 8]: 2 h
AUClast [2, 9]: 651.387 µg·h/mL
AUC∞ [2, 9]: 651.534 µg·h/mL
Cmax [2, 9]: 81633 ng/mL
MRT∞ [2, 9]: 4.73 h
t1/2 [2, 9]: 1.90 h
tmax [2, 9]: 2 h
median time to maximum concentration (Tmax) ([2]; intraperitoneal injection, 10 or 50 mg/kg): 2 h
DNA methylation levels at 4qA or D4Z4 regions [3]: No statistically significant effect
expression levels of PRKDC (mRNA) (PRKDC): No significant difference
expression levels of SRC (mRNA) (SRC [4]): No significant difference
intensity distribution of nuclear phosphorylated SRC^416 (kinase activity) (SRC [5]): significant shift towards lower intensity levels
